Experiments:
[1] = test system: Pseudomonas aeruginosa strain H1001; test: Assay for the cleaved (free, soluble) peptides from cellulose support, luminescence killing assay; assay type: cell-based; set-up: key: 1: Peptides showing stronger killing than Bac2A at a 4 to 8-fold higher dilution; Peptides showing stronger killing compared to that of Bac2A at a 4-fold higher dilution; 3: Peptides similar to Bac2A; 4: Peptides similar to Bac2A at the highest concentration but demonstrating weaker killing at a 2-fold dilution; 5: Peptides giving very weak or no killing at a 2-fold dilution; 6: Peptides with weak killing activity at the highest concentration; settings: free (cleaved) peptides, killing relative to Bac2A
Procedure: Assay for the cleaved peptides from cellulose support. The peptides were cleaved from the dried membrane in an ammonia atmosphere overnight, resulting in free peptides with an amidated C-terminus. The free peptides contained two β-alanines at the C-terminus, in addition to being amidated due to the linker between the cellulose membrane and the peptide sequence. The peptide spots were punched out and transferred in a 96-well microtiter plate. Serial dilutions were carried out from the membrane spots. Four rows were filled with four controls including two with Bac2A and two with of an unrelated peptide. The other eight rows were used for serial dilution steps of the peptide variants. An overnight culture of Pseudomonas aeruginosa strain H1001 was diluted 1:500 using either LB media or 100 mM Tris buffer pH 7.3, 20 mM glucose and was added to the wells (100 μl/well) containing the peptide spots. In all other wells 50 μl were added. The microtiter plate was incubated for 30 min at 37° C. to release the peptides from the membrane. Subsequently, a dilution series were performed and the plate was incubated at 37° C. The luminescence produced by the ATP dependent luciferase system were detected in a time dependent manner using a Tecan Spectra Fluor plus.
(§1) Strains. For the killing assay a mini-Tn5-lux mutant in Pseudomonas aeruginosa H103 was used. The strain is called H1001 and contains a fliC::luxCDABE transcriptional fusion resulting in constitutive expression of luciferase. The bacterial strains used for the antimicrobial activity assays included Escherichia coli UB1005 (F-, nalA37, metB1), a wild-type Salmonella enterica ssp. Typhimurium (S. Typhimurium), wild-type Pseudomonas aeruginosa PAO1 strain H103, Enterococcus faecalis ATCC29212, Staphylococcus aureus ATCC25923, and a clinical isolate of Staphylococcus epidermidis obtained from Dr. D. Speert (Department of Medicine, University of British Columbia). Antifungal activity was tested using a lab isolate of Candida albicans obtained from Dr. B. Dill (Department of Microbiology and Immunology, University of British Columbia).
Peptide synthesis on cellulose is a very effective and inexpensive way to investigate many different peptide variants for one particular activity. However, one of the problems of this technique is the low peptide density synthesized on the membrane, about 280 nmol per cm2. An average peptide spot used for the experiments presented is about 0.3 cm2. Therefore, an assay had to be developed that was sensitive enough to show activity with this amount of peptides. P. aeruginosa H1001 has a reporter system (e.g., a luciferase gene cassette) incorporated into the bacterial chromosome in the fliC gene (involved in flagellar biosynthesis) that is constitutively expressed. It will thus produce light if ATP is present. When this strain is killed, e.g. by peptides, the amount of light produced will decrease due to a decrease in ATP levels in the killed cells. This action can thus be monitored by detecting luminescence in a microtiter plate luminescence reader over time. The volume and amount of cells per well were optimized for this assay. After screening, the killing action was monitored with small amounts of the parent peptide Bac2A (2 μg/ml of free peptide).
Forty-nine scrambled peptides (Bac002-Bac050) were synthesized on the cellulose support and then cleaved by ammonia gas resulting in free peptides with an amidated C-terminus including the linker. The peptide spots were transferred to a 96-well microtiter plate and incubated for 30 min to dissociate the peptides from the cellulose. After serial dilution and addition of strain H1001, luminescence was recorded in a time dependent manner (FIG. 1). All 50 scrambled peptides were compared to Bac2A ([…]-NH2; SEQ ID NO: 1) by this assay (see Table 2). […] Further since all scrambled peptides had some activity, a sequence-specific interaction of the peptides with a receptor or target could be excluded.

[2] = test system: Pseudomonas aeruginosa strain H1001 fliC::luxCDABE; test: Luminescence-based assay for the non-cleaved (bound) peptides on cellulose membranes; assay type: cell-based; settings: for Luminescence at the given time in minutes: 0 / Luminescence at the given time in minutes: 20 / Luminescence at the given time in minutes: 40 / Luminescence at the given time in minutes: 60 / Luminescence at the given time in minutes: 80 / Luminescence at the given time in minutes: 100 / Luminescence at the given time in minutes: 120 / Luminescence at the given time in minutes: 180 / Luminescence at the given time in minutes: 240: cellulose-bound peptide; for Luminescence at the given time in minutes: 0: 0 min; for Luminescence at the given time in minutes: 20: 20 min; for Luminescence at the given time in minutes: 40: 40 min; for Luminescence at the given time in minutes: 60: 60 min; for Luminescence at the given time in minutes: 80: 80 min; for Luminescence at the given time in minutes: 100: 100 min; for Luminescence at the given time in minutes: 120: 120 min; for Luminescence at the given time in minutes: 180: 180 min; for Luminescence at the given time in minutes: 240: 240 min; for Activity Class bound: uncleaved cellulose-bound peptides
Procedure: Luminescence-based MIC assay for the non-cleaved peptides on cellulose membranes. The peptide spots were punched out and transferred to a 96 well microtiter plate with a clear polystyrene bottom and opaque white polypropylene sides (PerkinElmer, Boston, USA). The spots were washed two times with 100% ethanol for 5 min and afterwards equilibrated five times with 100 mM Tris buffer pH 7.3 for 5 min. An overnight culture of Pseudomonas aeruginosa strain H1001 fliC::luxCDABE was diluted 1:50 in new MH medium and incubated at 37° C. to an OD600 of 0.35. This bacterial culture was diluted 1:25 into 10 mM Tris-HCl buffer, pH 7.3 containing 20 mM glucose. Fifty μl of this culture was added to all wells of the microtiter plate and incubated at 37° C. The luminescence of the strain produced by the ATP-dependent luciferase system was detected in a time dependent manner using a Tecan Spectra Fluor plus (Tecan, Austria). At the end of the experiment, the membranes were cleaned by washing the spots two times with 100% ethanol for five minutes. After removing the ethanol the membrane was air-dried.
as §1
The same set of peptides, as well as the reversed sequence of Bac2A-R ([…]; SEQ ID NO: 2166), were synthesized on cellulose and left uncleaved. The production of light was initially compared in wells containing spots of Bac2A, Bac2A-R (with the reversed sequence of Bac2A), the unrelated negative-control peptide, or, as additional controls, only cellulose, or only bacteria (FIG. 2).
As a control, the negative control (unrelated) peptide Bac429 and parent peptide Bac2A (=Bac001) were used in several different wells of the microtiter plate. Luminescence (relative light units; RLU) was measured at 14 different time points, 9 of which are shown. To permit comparison of the data with the free peptide data set, the result for each peptide was classified into six different groups, like the data set with the free peptides (Table 2). […] For the soluble peptides the following classes were established: […]

Sequence | Activity Class Soluble [1] | Luminescence at the given time in minutes: 0 [2] [RLU] | Luminescence at the given time in minutes: 20 [2] [RLU] | Luminescence at the given time in minutes: 40 [2] [RLU] | Luminescence at the given time in minutes: 60 [2] [RLU] | Luminescence at the given time in minutes: 80 [2] [RLU] | Luminescence at the given time in minutes: 100 [2] [RLU] | Luminescence at the given time in minutes: 120 [2] [RLU] | Luminescence at the given time in minutes: 180 [2] [RLU] | Luminescence at the given time in minutes: 240 [2] [RLU] | Activity Class bound [2]
ILVARVIRRRVA [Bac019] | 5 | 5239 | 7569 | 5731 | 4741 | 3822 | 3000 | 2373 | 1908 | 1570 | 5 (Peptides reducing luminescence (lux) values to between 1500 to 3000 after 240 min.)
ILVIVRRRARAV [Bac042] | 3 | 5171 | 6703 | 4453 | 2128 | 746 | 244 | 86 | 49 | 52 | 3 (Peptides similar to Bac2A resulting in lux values of less than 500 after 240 min.)
IRARIAVRRVVL [Bac004] | 3 | 3773 | 6547 | 5008 | 4405 | 3805 | 3125 | 2753 | 2459 | 2607 | 5 (Peptides reducing luminescence (lux) values to between 1500 to 3000 after 240 min.)
IRVRRLVAAVIR [Bac033] | 5 | 4795 | 6539 | 4785 | 4155 | 3565 | 3095 | 2639 | 2613 | 2962 | 5 (Peptides reducing luminescence (lux) values to between 1500 to 3000 after 240 min.)
IVRVAVALRRIR [Bac005] | 3 | 3853 | 6844 | 5163 | 4287 | 3443 | 2254 | 1891 | 1665 | 1791 | 5 (Peptides reducing luminescence (lux) values to between 1500 to 3000 after 240 min.)
LAIVRRARVRIV [Bac031] | 5 | 4646 | 7357 | 5808 | 5146 | 4145 | 3815 | 3472 | 3130 | 3247 | 6 (Peptides having residual luminescence (lux) values greater than 3000 after 240 min.)
RAIIRRVLVRVA [Bac024] | 4 | 4164 | 7630 | 5586 | 4358 | 3256 | 2398 | 1727 | 1384 | 1373 | 4 (Peptides reducing luminescence (lux) values to between 500 to 1499 after 240 min.)
RAIRVRRIVLAV [Bac037] | 4 | 4908 | 6480 | 4105 | 1624 | 366 | 120 | 54 | 59 | 46 | 3 (Peptides similar to Bac2A resulting in lux values of less than 500 after 240 min.)

Reference: patent publication US20080207522A1, “Antimicrobial Peptides” (priority 2004, published 2008)
